Test results from the supplement of paper PMC11208160.

assay: recombinant barcode read abundance after kanamycin selection (control-corrected) (log10(CPM+1)); higher = more efficient recombination; sequences stand for … in AGTGCAGAGAAAATCGGCCAGTTTTCTCTGCCTGCAGTCCGCATGCCGT…AGATTTATGCAGCGGACTGCCTTTCTCCCAAAGTGATAAACCGGACAGTATCATGGACCGGTTTTCCCGGTAATCCGTATTTGCAAGGTTGGTTTCACT; site = the 11-nt target
Procedure, shortened: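 Recombination efficiency comes from barcode counts at recombinant junctions, converted to counts per million, averaged and corrected against the control. Values appear as log10(CPM+1). They were obtained from a pooled E. coli screen in which each oligo paired a target with an IS621 bridge RNA target-binding loop, and cells were plated in duplicate on chloramphenicol/ampicillin LB agar or on chloramphenicol/ampicillin/kanamycin with 0.1 mM IPTG.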
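Note: IS621 recombinase and bridge RNA in Escherichia coli cells.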

“GACATCTCTTGGGTTCTAACCTGTTGCCT (site GACATCACTAG)” and “GACATCTCTTGGGTTCTAACCTGTTGCCT (site GACATCCCTAG)” are within 0.2 log units of each other in “recombinant barcode read abundance (log10)” value: 0.105 for the first, 0.00568 for the second.

Compared with “GACATCTCTTGGGTTCTAACCTGTTGCCT (site GACATCGCTAG)”, “GACATCTCTTGGGTTCTAACCTGTTGCCT (site GACATCTCTAG)” is higher in “recombinant barcode read abundance (log10)” value: 0.0954 for the first, 1.19 for the second.

First: GACCGAGCTTGGGTTCTAACCTGTTGCCT (site GACCGAGCTAG)
Second: GACCGAGCTTGGGTTCTAACCTGTTGCCT (site GACCGCGCTAG)
The “recombinant barcode read abundance (log10)” value of the first is higher: 1.33 for the first, 0.0201 for the second.

First: GACCGAGCTTGGGTTCTAACCTGTTGCCT (site GACCGGGCTAG)
Second: GACCGAGCTTGGGTTCTAACCTGTTGCCT (site GACCGTGCTAG)
The “recombinant barcode read abundance (log10)” value of the first is lower: 0.145 for the first, 0.345 for the second.

Going from “GACCGTCCTTGGGTTCTAACCTGTTGCGT (site GACCGTCCTAA)” to “GACCGTCCTTGGGTTCTAACCTGTTGCGT (site GACCGTCCTAC)”, the “recombinant barcode read abundance (log10)” value rises from 0.306 to 2.65.

Going from “GACCGTCCTTGGGTTCTAACCTGTTGCGT (site GACCGTCCTAG)” to “GACCGTCCTTGGGTTCTAACCTGTTGCGT (site GACCGTCCTAT)”, the “recombinant barcode read abundance (log10)” value rises from 0.573 to 1.14.

Going from “GACCTGGCTTGGGTTCTAACCTGTTGCCG (site GACCTGACTTG)” to “GACCTGGCTTGGGTTCTAACCTGTTGCCG (site GACCTGGCTCG)”, the “recombinant barcode read abundance (log10)” value rises from 0.176 to 0.886.

“GACGCAACTTGGGTTCTAACCTGTTGCAT (site GACGCAACTAT)” and “GACGCAACTTGGGTTCTAACCTGTTGCAT (site GACGCTTCTAT)” are within 0.2 log units of each other in “recombinant barcode read abundance (log10)” value: 0.0836 for the first, 0.0419 for the second.

Going from “GACGCCACTTGGGTTCTAACCTGTTGCCT (site AACGCCACTAG)” to “GACGCCACTTGGGTTCTAACCTGTTGCCT (site GACGCCACTAG)”, the “recombinant barcode read abundance (log10)” value rises from 0.162 to 0.425.

“GACGCCTCTTGGGTTCTAACCTGTTGCCT (site AACGCCTCTAG)” and “GACGCCTCTTGGGTTCTAACCTGTTGCCT (site CACGCCTCTAG)” are within 0.2 log units of each other in “recombinant barcode read abundance (log10)” value: 0.227 for the first, 0.202 for the second.

Going from “GACGCCTCTTGGGTTCTAACCTGTTGCCT (site GACGCCTCTAG)” to “GACGCCTCTTGGGTTCTAACCTGTTGCCT (site TACGCCTCTAG)”, the “recombinant barcode read abundance (log10)” value falls from 0.47 to 0.

First: GACGCCTCTTGGGTTCTAACCTGTTGCGC (site GACGCCTCTGC)
Second: GACGCCTCTTGGGTTCTAACCTGTTGCGC (site TTGAAACCTAG)
The “recombinant barcode read abundance (log10)” value of the first is higher: 2.25 for the first, 0.26 for the second.

First: GACGGACCTTGGGTTCTAACCTGTTGCTA (site ATAACGGCTAG)
Second: GACGGACCTTGGGTTCTAACCTGTTGCTA (site GACGGACCTTA)
The “recombinant barcode read abundance (log10)” value of the first is lower: 0.0648 for the first, 1.26 for the second.

Going from “GACGGATCTTGGGTTCTAACCTGTTGCCT (site GACGGATCTAA)” to “GACGGATCTTGGGTTCTAACCTGTTGCCT (site GACGGATCTAC)”, the “recombinant barcode read abundance (log10)” value falls from 0.842 to 0.101.

“GACGGATCTTGGGTTCTAACCTGTTGCCT (site GACGGATCTAG)” and “GACGGATCTTGGGTTCTAACCTGTTGCCT (site GACGGATCTAT)” are within 0.2 log units of each other in “recombinant barcode read abundance (log10)” value: 0.212 for the first, 0.0859 for the second.

Going from “GACGGCACTTGGGTTCTAACCTGTTGCGG (site GACGGCACTCC)” to “GACGGCACTTGGGTTCTAACCTGTTGCGG (site TCTCATGCTAT)”, the “recombinant barcode read abundance (log10)” value falls from 2.56 to 0.166.

Compared with “GACGGCTCTTGGGTTCTAACCTGTTGCCT (site GACGGCTCTAG)”, “GACGGCTCTTGGGTTCTAACCTGTTGCCT (site GCCGGCTCTAG)” is lower in “recombinant barcode read abundance (log10)” value: 1.3 for the first, 0.365 for the second.

Compared with “GACGGGGCTTGGGTTCTAACCTGTTGCAG (site GACGGAGCTCA)”, “GACGGGGCTTGGGTTCTAACCTGTTGCAG (site GACGGGGCTCT)” is higher in “recombinant barcode read abundance (log10)” value: 0.753 for the first, 2.59 for the second.

First: GACGTACCTTGGGTTCTAACCTGTTGCCT (site GACATACCTAG)
Second: GACGTACCTTGGGTTCTAACCTGTTGCCT (site GACCTACCTAG)
The “recombinant barcode read abundance (log10)” value of the first is higher: 0.428 for the first, 0.133 for the second.

Compared with “GACGTACCTTGGGTTCTAACCTGTTGCCT (site GACGTACCTAG)”, “GACGTACCTTGGGTTCTAACCTGTTGCCT (site GACTTACCTAG)” is lower in “recombinant barcode read abundance (log10)” value: 1.31 for the first, 0.0104 for the second.

Compared with “GACGTAGCTTGGGTTCTAACCTGTTGCCT (site GACGTAGCTAG)”, “GACGTAGCTTGGGTTCTAACCTGTTGCCT (site GCCGTAGCTAG)” is lower in “recombinant barcode read abundance (log10)” value: 1.6 for the first, 0.083 for the second.

Compared with “GACGTAGCTTGGGTTCTAACCTGTTGCCT (site GGCGTAGCTAG)”, “GACGTAGCTTGGGTTCTAACCTGTTGCCT (site GTCGTAGCTAG)” is lower in “recombinant barcode read abundance (log10)” value: 0.52 for the first, 0.279 for the second.

Going from “GACGTTGCTTGGGTTCTAACCTGTTGCCT (site GACGTTGCTAG)” to “GACGTTGCTTGGGTTCTAACCTGTTGCCT (site GACTTTACTAG)”, the “recombinant barcode read abundance (log10)” value falls from 1.32 to 0.102.

Going from “GACTACCCTTGGGTTCTAACCTGTTGCCT (site ATGCTGTCTTA)” to “GACTACCCTTGGGTTCTAACCTGTTGCCT (site GACTACCCTAG)”, the “recombinant barcode read abundance (log10)” value rises from 0.0344 to 2.2.

“GACTCCGCTTGGGTTCTAACCTGTTGCCT (site GACTCCGCTAG)” and “GACTCCGCTTGGGTTCTAACCTGTTGCCT (site TACTCCGCTAG)” are within 0.2 log units of each other in “recombinant barcode read abundance (log10)” value: 0.876 for the first, 0.692 for the second.

Compared with “GACTCGACTTGGGTTCTAACCTGTTGCTT (site GAATCAACTAA)”, “GACTCGACTTGGGTTCTAACCTGTTGCTT (site GACTCGACTAA)” is higher in “recombinant barcode read abundance (log10)” value: 0.122 for the first, 0.395 for the second.

First: GACTCTCCTTGGGTTCTAACCTGTTGCTT (site GACTCTCCTAA)
Second: GACTCTCCTTGGGTTCTAACCTGTTGCTT (site GACTCTCCTAC)
The “recombinant barcode read abundance (log10)” value of the first is higher: 1.53 for the first, 0.0892 for the second.

Going from “GACTCTCCTTGGGTTCTAACCTGTTGCTT (site GACTCTCCTAG)” to “GACTCTCCTTGGGTTCTAACCTGTTGCTT (site GACTCTCCTAT)”, the “recombinant barcode read abundance (log10)” value rises from 0.029 to 0.241.

Going from “GACTGGTCTTGGGTTCTAACCTGTTGCAT (site GACTGGTCTAG)” to “GACTGGTCTTGGGTTCTAACCTGTTGCAT (site GACTGGTCTAT)”, the “recombinant barcode read abundance (log10)” value rises from 0.969 to 1.6.

First: GACTGGTCTTGGGTTCTAACCTGTTGCCT (site GACTGGTCTAG)
Second: GACTGGTCTTGGGTTCTAACCTGTTGCCT (site GACTGGTCTAT)
The “recombinant barcode read abundance (log10)” value of the first is higher: 1.45 for the first, 0.364 for the second.

First: GACTTACCTTGGGTTCTAACCTGTTGCCT (site GACATACCTAG)
Second: GACTTACCTTGGGTTCTAACCTGTTGCCT (site GACCTACCTAG)
The “recombinant barcode read abundance (log10)” value of the first is lower: 0.134 for the first, 1.43 for the second.

Compared with “GACTTACCTTGGGTTCTAACCTGTTGCCT (site GACGTACCTAG)”, “GACTTACCTTGGGTTCTAACCTGTTGCCT (site GACTTACCTAG)” is higher in “recombinant barcode read abundance (log10)” value: 0.111 for the first, 0.843 for the second.

“GACTTGCCTTGGGTTCTAACCTGTTGCAT (site GACTTACCTAT)” and “GACTTGCCTTGGGTTCTAACCTGTTGCAT (site GACTTCCCTAT)” are within 0.2 log units of each other in “recombinant barcode read abundance (log10)” value: 0.0511 for the first, 0.113 for the second.
